Data set [1] has as its system hepatitis C virus (HCV) replicon. Briefly: HCV replication in AVA5 replicon cell culture, 3-day assay. Particulars: AVA5 cells; for EC50: 2-fold depression of HCV RNA; for EC90: 10-fold depression of HCV RNA. It counts as cell-based. As to the method: (§1) Anti-Hepatitis C Virus (HCV) analyses and an assessment of cytotoxicity were performed in a 3-day assay in the HCV replicon-containing human hepatoblastoma cell line, AVA5 (Okuse, C., Rinaudo, J. A., Farrar, K., Wells, F. & Korba, B. E. Enhancement of antiviral activity against hepatitis C virus in vitro by interferon combination therapy. Antivir. Res. 65, 23-34 (2005)) as previously described (Blight, K. J., Kolykhalov, A. A. & Rice, C. M. Efficient initiation of HCV RNA replication in cell culture. Science 290, 1972-1974 (2000)).
(§2) Values presented (±standard deviations [S.D.]) were calculated by linear regression analysis using data combined from all treated cultures. S.D. were calculated using the standard error of regression generated from the linear regression analyses (QuattroPro™). EC50, EC90=drug concentration at which a 2-fold, or a 10-fold depression of HCV RNA (relative to the average levels in untreated cultures), respectively, was observed. CC50=drug concentration at which a 2-fold depression of neutral red dye uptake was observed relative to the average levels in untreated cultures. Selectivity index=CC50/EC50.
(In general: Replicon systems follow genome replication, usually without infectious particles.)

In a further data set the test system is AVA5 cells. Briefly: Cytotoxicity in AVA5 cells (neutral red dye uptake). It counts as cell-based, human. Particulars: neutral red dye uptake, values for interferon. How it is done:
as §1, §2

In another data set the test system is Influenza A: PR8 strain. Briefly: microbe, parasite or virus in culture. It counts as cell-based, Influenza A virus.
Data set [2] deals with Rotavirus: Simian Rotavirus SA-11. Briefly: microbe, parasite or virus in culture. Particulars: Simian rotavirus SA-11, MA104 cell culture. It counts as cell-based.
Data set [3] concerns Paramyxovirus: Sendai virus. Briefly: microbe, parasite or virus in culture. It counts as cell-based. Particulars: Sendai virus, 37RC cell culture (Table 1).
For data set [4], the system named is anaerobic Gram positive cocci. As to the kind of experiment: CLSI agar dilution MIC, anaerobic clinical isolates. To be noted: Gram + cocci (16 isolates), 48 h. In kind it is cell-based. Background: In agar dilution, organisms are placed on agar that contains the substance at set levels.
The test system of data set [5] is Rhabdovirus: Vesicular stomatitis virus. As to the kind of experiment: microbe, parasite or virus in culture. In kind it is cell-based.
The next data set relates to clostridia. As to the kind of experiment: organism not typed. It counts as cell-based. To be noted: Clostridia (18 isolates), agar dilution, 48 h.
A short description of data set [6]: Cytotoxicity in AVA5 cells (neutral red dye uptake). In kind it is cell-based, human. To be noted: human, 2-fold depression of neutral red dye uptake. As to the method:
as §1, §2

Data set [7] can be described thus: Cytotoxicity in 2.2.15 cells (neutral red dye uptake). It counts as cell-based. To be noted: human, 2-fold depression of neutral red dye uptake. How it is done:
(§3) Anti-Hepatitis B Virus (HBV) analyses and an assessment of cytotoxicity were performed in a 9-day assay in the chronically-producing HBV human hepatoblastoma cell line, 2.2.15, as previously described (Korba, B. E. & Gerin, J. L. Use of a standardized cell culture assay to assess activities of nucleosides analogues against hepatitis B virus replication. Antivir. Res. 19, 55-70 (1992)).
(§4) Values presented (±standard deviations [S.D.]) were calculated by linear regression analysis using data combined from all treated cultures. S.D. were calculated using the standard error of regression generated from linear regression analyses (QuattroPro™). EC50, EC90=drug concentration at which a 2-fold, or a 10-fold depression of HBV DNA (relative to the average levels in untreated cultures), respectively, was observed, CC50=drug concentration at which a 2-fold depression of neutral red dye uptake (relative to the average levels in untreated cultures) was observed, The EC90 values were used for the calculation of the Selectivity Indexes [S.I.] since at least a 3-fold depression of HBV levels is typically required to achieve statistical significance in this assay system. HBV R.I.=intracellular HBV DNA replication intermediate.

The test system of data set [8] is Coronavirus: canine coronavirus strain S-378. As to the kind of experiment: microbe, parasite or virus in culture. To be noted: canine coronavirus strain S-378, A72 cell culture. In kind it is cell-based.
For data set [9], the system named is anaerobic bacteria (all 142 isolates). As to the kind of experiment: CLSI agar dilution MIC, all anaerobic clinical isolates. In kind it is cell-based.
Data set [10] deals with anaerobic Gram-positive non-sporeforming rods. Briefly: CLSI agar dilution MIC, anaerobic clinical isolates. It counts as cell-based. Particulars: Gram + rods (14 isolates), 48 h.
For another data set, the system named is Hepatitis B Virus (HBV). As to the kind of experiment: HBV replication in 2.2.15 cell culture, 9-day assay. In kind it is cell-based. To be noted: for EC50 / EC90: Hepatitis B virus, 2.2.15 cells. How it is done:
as §3, §4

A further data set concerns fusobacteria. As to the kind of experiment: CLSI agar dilution MIC, anaerobic clinical isolates. It counts as cell-based. To be noted: Fusobacteria (28 isolates), 48 h. As to the method: (§5) Methods. Recent clinical anaerobic isolates (2000 to date) comprised 40 B. fragilis group, 26 Prevotella/Porphyromonas, 28 fusobacteria, 16 anaerobic Gram positive cocci, 14 anaerobic Gram-positive non-sporeforming rods and 18 clostridia. CLSI agar dilution MIC methodology with enriched Brucella blood agar and inocula of 1×10^5 cfu/spot was used. Plates were incubated in an anaerobic glove box at 35° C. for 48 h. Results.

The test system of the next data set is B. fragilis group. The data set is described as above. In kind it is cell-based. Particulars: Bacteroides fragilis, B. fragilis gp (40 isolates), 48 h, 35° C. How it is done: as §5
Another data set relates to Prevotella/Porphyromonas. Described as above. To be noted: Prev/Porphy (26 isolates), 48 h. It counts as cell-based. As to the method: as §5
Data set [11] relates to Herpes Simplex type 1: strain F1. As to the kind of experiment: microbe, parasite or virus in culture. It counts as cell-based, Herpes Simplex virus type 1. Particulars: Herpes Simplex type 1 strain F1, HEp-2 cell culture.
Where [12] appears, read: All (142 isolates), agar dilution, 48 h.

As a reminder, the CC50 is the concentration that lowers cell viability or growth by half. What is called MIC50 is an inhibitory concentration at the 50% level, which refers to growth in some studies and to a panel of isolates in others. As a reminder, the MIC90 is an inhibitory concentration at the 90% level, which refers to growth in some studies and to a panel of isolates in others.

Where two headings read alike, the source gives them in different places. Marks after values point to notes of the source that are not given here.

Take ∝ - Interferon: in data set [1] (values for interferon), the EC50 stood at 2.2 ± 0.2 IU/ml and the EC90 stood at 8.5 ± 0.6 IU/ml. Further, the CC50 in the data set with AVA5 cells is >10,000*^§ IU/ml.
Consider `Cc1cccc(C(=O)Nc2ncc(Br)s2)c1O` [RM-4819, 2-(hydroxy)-3-methyl-N-(5-bromo-2-thiazolyl)benzamide], for which the “SI (selectivity index) = CC50/EC50” value is > 17 with Influenza A: PR8 strain (Influenza A PR8 strain, MDCK cell culture, CC50 by MTT); > 500 in data set [2] (CC50 by MTT); > 125 in [3] (CC50 by MTT); > 100 in data set [5] (MA104 cell culture, CC50 by MTT); > 33 in [8] (CC50 by MTT); > 250 in data set [11] (CC50 by MTT). Also, the EC50 in the data set with Influenza A: PR8 strain (Influenza A virus, PR8, MDCK) worked out at 9.6 µM; in data set [2] (Rotavirus A), 0.3 µM; in data set [3] (Respirovirus muris) it was 1.3 µM; in data set [5] (MA104), 1.6 µM; in [1] (Hepatitis C virus, read-out: EC50) it was 8.9 ± 0.7 µM; in [8] (Alphacoronavirus 1, A-72), 4.9 µM. The EC50 in the data set with Hepatitis B Virus (HBV) (2-fold depression of HBV DNA, read-out: Extracellular Virion DNA EC50) came out at 3.5 ± 0.5 µM; in the data set on Hepatitis B Virus (HBV) (intracellular HBV DNA replication intermediate, 2-fold depression, read-out: Intracellular HBV R.I. EC50), 7.6 ± 0.9 µM; in data set [11] (Human alphaherpesvirus 1) it was 0.6 µM. In addition, the MIC50 (in data set [4]; in the data set on clostridia (read-out: MIC50); in [9] (setting [12]); in data set [10]; against fusobacteria; against B. fragilis group) was > 32 µg/mL throughout. Also, in the data set with Prevotella/Porphyromonas, the MIC50 was > 32 µg/mL. Moreover, the MIC90 (in data set [4]; with clostridia (read-out: MIC90); in [9] (setting [12]); in [10]; with fusobacteria; with B. fragilis group) was > 32 µg/mL in each case. Further, the MIC90 in the data set with Prevotella/Porphyromonas is > 32 µg/mL. Also, the “Selectivity Index” value in data set [1] (CC50/EC50) is 18. The EC90 worked out at 79 ± 8.2 µM in data set [1] (Hepatitis C virus, read-out: EC90); 9 ± 0.8 µM in the data set with Hepatitis B Virus (HBV) (10-fold depression of HBV DNA, read-out: Extracellular Virion DNA EC90); 22 ± 2.6 µM with Hepatitis B Virus (HBV) (intracellular HBV DNA replication intermediate, 10-fold depression, read-out: Intracellular HBV R.I. EC90). In data set [6], the CC50 at 3 day was found to be 164 ± 18 µM. Further, in data set [7], the CC50 at 9 day is > 1000 µM. The “Activity against anaerobic bacteria groups (summary in words)” value in data set [9] (summary of MIC results) is reported as “without significant activity”. Also, the “Selectivity Index R.I.” value with Hepatitis B Virus (HBV) (calculated with EC90 values (CC50/EC90), HBV R.I.) is >46. Moreover, the “Selectivity Index Virion” value in the data set on Hepatitis B Virus (HBV) (calculated with EC90 values (CC50/EC90), virion DNA) was >111.

The values are drawn from patent US7285567B2, “Halogenated benzamide derivatives” (Romark Laboratories, L.C., priority 2005, dated 2007).
